Laboratory results from patent EP0569777A2 (Bayer Corporation, priority 1992, dated 1993).
Where a SMILES comes first, the peptide text is derived from it. [ ]: non-standard residue; d: D form. The star is where a group is joined. Sta = CC(C)C[C@H](N)[C@@H](O)CC(=O)O; Isovaleryl = CC(C)CC(=O)*

What was measured:
[1] = target: human cathepsin D (human liver, Cal Biochem, catalog # 219401) (Homo sapiens, UniProt P07339); test: Immunoblot assay of holo-APP 695 degradation by purified cathepsin D; type: biochemical
Method: The numbers indicate the time (hr) after initiation of reactions. Reactions were initiated at 37°C by the addition of APP to achieve the following initial component concentrations: APP (82 nM), cathepsin D (9.2 ug/ml),in […] Mes buffer pH 6.5. Samples without pepstatin received the same amount of solvent (1.3 % v/v methanol). At t=0, 43, 84, 140 and 215 minutes aliquots (15 ul) were removed mixed with 7.5 ul of SDS-PAGE sample buffer and subject to immunoblot analysis using the Rabbit antiserum to the APP C-terminal domain. The 18 and 28 kDa reaction products are located with arrows.
Reactions were initiated at 37°C by APP addition thereby achieving the following initial component concentrations: APP (448 nM), cathepsin D (30 nM), and when included pepstatin A (97.2 µm) in 83 mM sodium acetate buffer pH 5.0. At the indicated time points, aliquots (20 ul), were removed mixed with 10 ul of 3X SDSPAGE sample buffer and subjected to immunoblot analysis using monoclonal antibody 286.8A (1/100). Reactions were performed in the absence (-) or presence (+) of pepstatin A (delivered in methanol). All samples received 2.7 % (v/v) methanol. Lanes 1 and 12 contained prestained Mr markers, Lanes 10 and 18 contained C-100 Mr marker. Lanes 11 and 13 contained APP incubated without cathepsin D for zero and 21hr respectively. The main product fragments are indicated with arrows. […]

[2] = target: human brain P-2 enzyme (peak B), aspartic protease identified as cathepsin D (Homo sapiens, UniProt P07339); test: Immunoblot assay of holo-APP 695 degradation by P-2 enzyme (peak B, 15-25 kDa gel filtration region); type: biochemical; conditions: 100 uM pepstatin A in DMSO; P-2 enzyme 2.54 ug/ml, APP 168 nM, Mes buffer pH 6.5, 26 hr, 37°C; Figure 7
Method: Reactions (32 ul) were initiated at 37°C by APP addition to achieve the following initial component conditions: P-2 enzyme (2.54 ug/ml) fraction from the 15-25 kDa region of gel filtration (Figure 6); APP (168 nM), in 96 mM Mes buffer pH 6.5. Reactions were terminated after 26 hr by addition of 15 ul of 3X sample buffer, and subject to immunoblot analysis using a 1/1000 dilution of the rabbit polyclonal antiserum to the APP C-terminus. […] The effect of incubation of APP for 0hr (lanes 2 and 30) and 26 hr (lanes 3 and 28) are also shown. Lanes 6, 10, 14, 17, 21 and 25 contained enzyme alone. Lanes 4, 8, 12, 19, 23, and […] contained the C-100 standard. Prestained molecular weight markers are present in lanes 1 and 29. The 18 and 28 kDa C-terminal product fragments are located with arrows.
ii) Solubilization. […] Absorbance of column effluent was monitored at 280 nm using a Pharmacia UV-M detector and a Kippen-zonen chart recorder. […] In the initial studies, eluted fractions were monitored for A280 nm, total protein (Bradford assay), and peptidase activity (as decsribed in Examples 2 and 3). […] Fractions were monitored for A 280 nm, total protein (Bradford assay), peptidase activity, and activity for C-terminal processing of recombinant APP. […]

human cathepsin D (human liver, Cal Biochem, catalog # 219401), sequence (P07339 with tags, fused parts or gaps): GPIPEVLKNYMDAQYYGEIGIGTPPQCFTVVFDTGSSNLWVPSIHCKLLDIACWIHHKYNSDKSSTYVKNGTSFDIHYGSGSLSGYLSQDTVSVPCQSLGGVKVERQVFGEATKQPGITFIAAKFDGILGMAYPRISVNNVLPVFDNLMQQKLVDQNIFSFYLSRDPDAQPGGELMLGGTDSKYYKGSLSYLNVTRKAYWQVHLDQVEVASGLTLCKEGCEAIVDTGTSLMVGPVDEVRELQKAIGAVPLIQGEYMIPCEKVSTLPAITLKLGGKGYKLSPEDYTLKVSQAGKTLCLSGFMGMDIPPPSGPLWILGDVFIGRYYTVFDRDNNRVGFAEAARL
human brain P-2 enzyme (peak B), aspartic protease identified as cathepsin D, sequence (P07339 with tags, fused parts or gaps): as above

Question: How did the “Inhibition of cathepsin D catalysed APP cleavage (18 and 28 kDa C-terminal products)” value ([1]; 86 uM pepstatin A, APP 82 nM, cathepsin D 9.2 ug/ml, Mes buffer pH 6.5, 37°C, Figure 8) turn out when `CC(C)CC(=O)N[C@H](C(=O)N[C@H](C(=O)N[C@@H](CC(C)C)[C@@H](O)CC(=O)N[C@@H](C)C(=O)N[C@@H](CC(C)C)[C@@H](O)CC(=O)O)C(C)C)C(C)C` [pepstatin A] (Isovaleryl-VV[Sta]A[Sta]-OH) was run?
Answer: Inhibition

Question: And the “Inhibition of cathepsin D catalysed APP degradation (beta-amyloid immunoreactive bands, Figure 13)” value ([1]; pepstatin A 97.2 µm, APP 448 nM, cathepsin D 30 nM, sodium acetate buffer pH 5.0, 37°C)?
Answer: inhibited

Question: What about the “Inhibition of peak B APP degrading activity” value [2] of the same compound?
Answer: quantitative inhibition
